Assays:
[1] = test system: Thyroid cancers and cell lines harboring PTC-RET translocations; details: PTC/RET translocations overexpressing the RET kinase domain; Henderson 2008, Carlomagno 2006; cited from earlier work
KIF5B-RET Ba/F3 cells = assay: Effects of drugs on Ba/F3 cells transfected with KIF5B-RET fusion constructs (IL-3 independent growth); format: cell-based; details: Ba/F3 cells expressing KIF5B-RET, FIG. 8
From the text: FIG. 8 is a graph showing the effects of different drugs on Ba/F3 cells transfected with KIF5B-RET fusion constructs.

## CNC(=O)c1cc(Oc2ccc(NC(=O)Nc3ccc(Cl)c(C(F)(F)F)c3)cc2)ccn1 [sorafenib]
[1]
  sensitivity of thyroid cancer and cell lines harboring PTC/RET translocations: sensitive
KIF5B-RET Ba/F3 cells
  sensitivity of KIF5B-RET transformed Ba/F3 cells to drug: sensitive
